Test results taken from US9377460B2 (priority 2009, dated 2016).

Key:
[1] = system: IFN-gamma-secreting T cells; type: cell-based, human; settings: for Proportion of responders to the Rv3615c peptide pool who respond to the individual peptide, LTBI % / Proportion of responders to the Rv3615c peptide pool who respond to the individual peptide, LTBI n: LTBI subjects; for Proportion of responders to the Rv3615c peptide pool who respond to the individual peptide, LTBI n / Proportion of responders to the Rv3615c peptide pool who respond to the individual peptide, Cases n: subjects responding/pool responders tested; for Proportion of responders to the Rv3615c peptide pool who respond to the individual peptide, Cases % / Proportion of responders to the Rv3615c peptide pool who respond to the individual peptide, Cases n: active TB cases
[2] = system: CD4-positive T cells; experiment: FACS analysis following cytokine capture assay (IFN-gamma / IL-2); type: cell-based, human; settings: subject T416 (LTBI), 6 hour stimulation

Row | Sequence | Proportion of responders to the Rv3615c peptide pool who respond to the individual peptide, LTBI % [1] | Proportion of responders to the Rv3615c peptide pool who respond to the individual peptide, LTBI n [1] | Proportion of responders to the Rv3615c peptide pool who respond to the individual peptide, Cases % [1] | Proportion of responders to the Rv3615c peptide pool who respond to the individual peptide, Cases n [1] | CD4 T cells secreting IFN-gamma only, relative size of subset [2] | CD4 T cells secreting IL-2 only, relative size of subset [2] | CD4 T cells secreting both IFN-gamma and IL-2, relative size of subset [2]
1 | AHNALGSSLHTAGVD (listed as Mycobacterium tuberculosis) [p13, 15mer peptide of Rv3615c] | 0% | 0/4 | 21% | 3/14 |  |  | 
2 | AITHGPYCSQFNDTL (listed as Mycobacterium tuberculosis) [p9, 15mer peptide of Rv3615c] | 40% | 2/5 | 0% | 0/15 |  |  | 
3 | ASHHDNAAVDASSGV (listed as Mycobacterium tuberculosis) [p4, 15mer peptide of Rv3615c] | 20% | 1/5 | 13% | 2/15 |  |  | 
4 | ASSGVEAAAGLGESV (listed as Mycobacterium tuberculosis) [p6, 15mer peptide of Rv3615c] | 0% | 0/5 | 7% | 1/15 |  |  | 
5 | DEAWRKAIDGLFT (listed as Mycobacterium tuberculosis) [p19, carboxy-terminal peptide of Rv3615c] | 25% | 1/4 | 15% | 2/13 |  |  | 
6 | EAAAGLGESVAITHG (listed as Mycobacterium tuberculosis) [p7, 15mer peptide of Rv3615c] | 0% | 0/5 | 7% | 1/15 |  |  | 
7 | FNDTLNVYLTAHNAL (listed as Mycobacterium tuberculosis) [p11, 15mer peptide of Rv3615c] | 0% | 0/5 | 27% | 4/15 |  |  | 
8 | GSSLHTAGVDLAKSL (listed as Mycobacterium tuberculosis) [p14, 15mer peptide of Rv3615c] | 50% | 2/4 | 79% | 11/14 | smallest population | second largest population | dominant population
9 | IYSEADEAWRKAIDG (listed as Mycobacterium tuberculosis) [p18, 15mer peptide of Rv3615c] | 25% | 1/4 | 8% | 1/13 |  |  | 
10 | LAKSLRIAAKIYSEA (listed as Mycobacterium tuberculosis) [p16, 15mer peptide of Rv3615c] | 100% | 4/4 | 69% | 9/13 | smallest population | second largest population | dominant population
11 | LGESVAITHGPYCSQ (listed as Mycobacterium tuberculosis) [p8, 15mer peptide of Rv3615c] | 0% | 0/5 | 7% | 1/15 |  |  | 
12 | MTENLTVQPERLGVL (listed as Mycobacterium tuberculosis) [p1, 15mer peptide of Rv3615c] | 0% | 0/5 | 7% | 1/15 |  |  | 
13 | NAAVDASSGVEAAAG (listed as Mycobacterium tuberculosis) [p5, 15mer peptide of Rv3615c] | 20% | 1/5 | 13% | 2/15 |  |  | 
14 | NVYLTAHNALGSSLH (listed as Mycobacterium tuberculosis) [p12, 15mer peptide of Rv3615c] | 40% | 2/5 | 43% | 6/14 |  |  | 
15 | PYCSQFNDTLNVYLT (listed as Mycobacterium tuberculosis) [p10, 15mer peptide of Rv3615c] | 40% | 2/5 | 40% | 6/15 |  |  | 
16 | RIAAKIYSEADEAWR (listed as Mycobacterium tuberculosis) [p17, 15mer peptide of Rv3615c] | 50% | 2/2 | 38% | 5/13 |  |  | 
17 | RLGVLASHHDNAAVD (listed as Mycobacterium tuberculosis) [p3, 15mer peptide of Rv3615c] | 40% | 2/5 | 20% | 3/15 |  |  | 
18 | TAGVDLAKSLRIAAK (listed as Mycobacterium tuberculosis) [p15, 15mer peptide of Rv3615c] | 50% | 2/4 | 71% | 10/14 |  |  | 
19 | TVQPERLGVLASHHD (listed as Mycobacterium tuberculosis) [p2, 15mer peptide of Rv3615c] | 0% | 0/5 | 33% | 5/15 |  |  | 
